# In patent US20080081827A1, “Use of a Pyrazole-Derived Compound that is an Antagonist for Cannabinoid CB1 Receptors, for Treating or Preventing Chronic Bronchitis or Chronic Obstructive Bronchopneumopathy” (SANOFI AVENTIS, priority 2004, published 2008):
# Where two headings read alike, the source gives them in different places.
# Legend:
# [1] = STRATUS clinical study, nicotine addiction; cited from earlier work
# [2] = test system: LPS-induced migration of neutrophil and mononuclear cells in the bronchoalveolar space; experiment: Migration of cells in the bronchoalveolar space after activation with bacterial LPS; format: in vivo; settings: mice, doses 0.3 to 30 mg/kg; for ED50: Mus musculus, i.p. 1 hour before 10 μG intratracheal LPS, bronchoalveolar lavage 24 hours after LPS
# Protocol: Migration of cells in the bronchoalveolar space after activation with bacterial LPS (lipopolysaccharide).
# Mice weighing 28 to 30 g are stimulated by means of an intratracheal exposure to 10 μG of LPS. 24 hours after the injection of LPS, the animals are anaesthetized with pentobarbital and a bronchoalveolar lavage is performed. The lavage fluids are recovered and are centrifuged, and the cells are then resuspended. The number of cells is counted, differentiating the eosinophil, neutrophil and mononuclear cells according to standard morphological criteria.
# The intratracheal injection of LPS induces a considerable increase in the number of mononuclear cells and neutrophils in the bronchoalveolar space of the mice.
# [3] = obese patients, clinical studies; cited from earlier work
structure (smiles),measurement,setting,value
"Cc1c(C(=O)NN2CCCCC2)nn(-c2ccc(Cl)cc2Cl)c1-c1ccc(Cl)cc1 [rimonabant, N-piperidino-5-(4-chlorophenyl)-1-(2,4-dichlorophenyl)-4-methylpyrazole-3-carboxamide]",effect on giving up smoking,[1],facilitates giving up smoking
same,ED50,"[2]; Mononuclear cell, read-out: ED50, inhibition of migration of the mononuclear cells",1.9 mg/kg
same,ED50,"[2]; Neutrophil, read-out: effective dose 50 (ED50), inhibition of migration of the neutrophil cells",2.3 mg/kg
same,inhibition of migration of the neutrophil cells,[2]; i.p. 1 hour before intratracheal LPS,more than 80%
same,"effect on hunger, calorie intake and body weight",[3],"reduces hunger, calorie intake, and the body weight of obese patients"
